The values that follow are results of earlier work, collected in US4123523A, “Analgesic and sedative polypeptides” (Imperial Chemical Industries Limited, priority 1976, dated 1978).

The data set concerns cat. Particulars: injected directly into the third ventricle of the cat.

Turning to “β-endorphin: residues 61-91 of the naturally-occuring lipolytic polypeptide hormone lipotropin (YGGFMTSEKSQTPLVTLFKNAIIKNAYKKGE; Beta-endorphin; UniProt P01189 237-267, looked up)”, the analgesic properties result was “possesses analgesic properties”.
